# Measurements as given in patent US20210261512A1, “NOVEL COMPOUNDS” (INFLAZOME LIMITED, priority 2018, published 2021).
# Molecular target: NLRP3 (Homo sapiens, UniProt Q96P20)
# Assay: THP-1 cells pyroptosis assay
# Assay type: cell-based
# Parameters: Seed THP-1 cells (25,000 cells/well) containing 1.0 μg/ml LPS; host or cells: THP-1
# Conditions: LPS 1.0 μg/ml, nigericin 5 μM, resazurin readout, 10 μM top dose (Example 2: top dose of 30 μM)
# Procedure: THP-1 cells (ATCC #TIB-202) were grown in RPMI containing L-glutamine (Gibco #11835) supplemented with imM sodium pyruvate (Sigma #S8636) and penicillin (100 units/ml)/streptomycin (0.1 mg/ml) (Sigma #P4333) in 10% Fetal Bovine Serum (FBS) (Sigma #F0804). The cells were routinely passaged and grown to confluency (˜10^6 cells/ml). On the day of the experiment, THP-1 cells were harvested and resuspended into RPMI medium (without FBS). The cells were then counted and viability (>90%) checked by Trypan blue (Sigma #T8154). Appropriate dilutions were made to give a concentration of 625,000 cells/ml. To this diluted cell solution was added LPS (Sigma #L4524) to give a 1 μg/ml Final Assay Concentration (FAC). 40 μl of the final preparation was aliquoted into each well of a 96-well plate. The plate thus prepared was used for compound screening.
# The following method step-by-step assay was followed for compound screening. • 1. Seed THP-1 cells (25,000 cells/well) containing 1.0 μg/ml LPS in 40 μl of RPMI medium (without FBS) in 96-well, black walled, clear bottom cell culture plates coated with poly-D-lysine (VWR #734-0317) • 2. Add 5 μl compound (8 points four-fold dilution or 8 points half-log dilution, with 10 μM top dose, unless stated otherwise) or vehicle (DMSO 0.1% FAC) to the appropriate wells • 3. Incubate for 3 hrs at 37° C. and 5% CO2 • 4. Add 5 μl nigericin (Sigma #N7143) (FAC 5 μM) to all wells • 5. Incubate for 1 hr at 37° C. and 5% CO2 • 6. At the end of the incubation period, spin plates at 300×g for 3 mins and remove supernatant • 7. Then add 50 μl of resazurin (Sigma #R^7017) (FAC 100 μM resazurin in RPMI medium without FBS) and incubate plates for a further 1-2 hrs at 37° C. and 5% CO2 • 8. Plates were read in an Envision reader at Ex 560 nm and Em 590 nm • 9. IC50 data is fitted to a non-linear regression equation (log inhibitor vs response-variable slope 4-parameters)
# Sequence of NLRP3 (Q96P20 whole entry): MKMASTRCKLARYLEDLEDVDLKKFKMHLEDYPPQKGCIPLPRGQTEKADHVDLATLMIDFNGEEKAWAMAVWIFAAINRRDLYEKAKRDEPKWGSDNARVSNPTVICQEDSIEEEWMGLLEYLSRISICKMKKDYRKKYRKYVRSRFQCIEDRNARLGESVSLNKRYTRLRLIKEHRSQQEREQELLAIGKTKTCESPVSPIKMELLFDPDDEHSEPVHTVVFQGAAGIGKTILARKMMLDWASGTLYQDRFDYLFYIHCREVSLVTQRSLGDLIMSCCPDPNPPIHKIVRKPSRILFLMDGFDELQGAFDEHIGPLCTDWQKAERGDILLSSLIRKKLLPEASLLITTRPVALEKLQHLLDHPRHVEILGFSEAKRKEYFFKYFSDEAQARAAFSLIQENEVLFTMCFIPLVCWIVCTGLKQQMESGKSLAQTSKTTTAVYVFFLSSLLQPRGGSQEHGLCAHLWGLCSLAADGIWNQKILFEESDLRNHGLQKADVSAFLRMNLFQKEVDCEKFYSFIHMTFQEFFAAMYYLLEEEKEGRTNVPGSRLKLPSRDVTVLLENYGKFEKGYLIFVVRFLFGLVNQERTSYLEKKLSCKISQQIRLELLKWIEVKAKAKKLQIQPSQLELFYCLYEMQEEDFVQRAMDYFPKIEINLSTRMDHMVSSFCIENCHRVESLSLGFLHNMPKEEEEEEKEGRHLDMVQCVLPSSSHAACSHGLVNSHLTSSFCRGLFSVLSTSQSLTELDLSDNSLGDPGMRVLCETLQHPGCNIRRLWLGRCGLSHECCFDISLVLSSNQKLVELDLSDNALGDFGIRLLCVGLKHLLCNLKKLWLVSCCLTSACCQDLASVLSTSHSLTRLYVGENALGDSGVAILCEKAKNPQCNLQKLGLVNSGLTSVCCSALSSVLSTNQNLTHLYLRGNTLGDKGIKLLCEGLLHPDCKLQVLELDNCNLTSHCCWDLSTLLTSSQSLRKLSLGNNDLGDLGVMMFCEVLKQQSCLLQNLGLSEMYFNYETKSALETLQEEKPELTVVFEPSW
row,IC50,Compound
1,≤ 5 µM,"Cc1cc2c(c(Nc3nnc(S(C)(=O)=O)[nH]3)c1-c1ccnc(O[C@H]3CC[C@H](N(C)C)CC3)c1)CCC2 [Example 365, N-(5-(2-(((1r,4r)-4-(dimethylamino)cyclohexyl)oxy)pyridin-4-yl)-6-methyl-2,3-dihydro-1H-inden-4-yl)-5-(methylsulfonyl)-4H-1,2,4-triazol-3-amine]"
2,≤ 1 µM,"O=S(=O)(c1ccn(CCO)n1)c1nnc(Nc2c3c(cc4c2CCC4)CCC3)[nH]1 [Example 334, 2-(3-((5-((1,2,3,5,6,7-hexahydro-s-indacen-4-yl)amino)-4H-1,2,4-triazol-3-yl)sulfonyl)-1H-pyrazol-1-yl)ethanol]"
3,≤ 0.5 µM,"CCN1CCCC12CCN(S(=O)(=O)c1nnc(Nc3c4c(cc5c3CCC5)CCC4)[nH]1)CC2 [Example 256, 5-((1-ethyl-1,8-diazaspiro[4.5]decan-8-yl)sulfonyl)-N-(1,2,3,5,6,7-hexahydro-s-indacen-4-yl)-4H-1,2,4-triazol-3-amine]"
4,≤ 5 µM,"O=S(=O)(c1nnc(Nc2c3c(cc4c2CCC4)CCC3)[nH]1)N1CCC2(COC2)C1 [Example 333, 5-(2-oxa-6-azaspiro[3.4]octan-6-ylsulfonyl)-N-(1,2,3,5,6,7-hexahydro-s-indacen-4-yl)-4H-1,2,4-triazol-3-amine]"
5,≤ 5 µM,"Cc1cc2c(c(Nc3nnc(S(C)(=O)=O)[nH]3)c1-c1ccnc(OC3CCOCC3)c1)CCC2 [Example 364, N-(6-methyl-5-(2-((tetrahydro-2H-pyran-4-yl)oxy)pyridin-4-yl)-2,3-dihydro-1H-inden-4-yl)-5-(methylsulfonyl)-4H-1,2,4-triazol-3-amine]"
6,≤ 0.5 µM,"COc1cc(-c2ccc3c(c2Nc2nnc(S(=O)(=O)c4ccc(C(C)(C)O)cc4)[nH]2)CCC3)ccn1 [Example 324, 2-(4-((5-((5-(2-methoxypyridin-4-yl)-2,3-dihydro-1H-inden-4-yl)amino)-4H-1,2,4-triazol-3-yl)sulfonyl)phenyl)propan-2-ol]"
7,≤ 5 µM,"CNS(=O)(=O)c1nnc(Nc2c3c(cc4c2CCC4)CCC3)[nH]1 [Example 371, 5-((1,2,3,5,6,7-hexahydro-s-indacen-4-yl)amino)-N-methyl-4H-1,2,4-triazole-3-sulfonamide]"
8,≤ 5 µM,"COc1cc(-c2cc(F)cc(C(C)C)c2Oc2nnc(S(=O)(=O)N3CCC(N(C)C)CC3)[nH]2)ccn1 [Example 253, 1-((5-(4-fluoro-2-isopropyl-6-(2-methoxypyridin-4-yl)phenoxy)-4H-1,2,4-triazol-3-yl)sulfonyl)-N,N-dimethylpiperidin-4-amine]"
9,≤ 10 µM,"CN1C[C@H]2[C@@H]1CCN2S(=O)(=O)c1nnc(Nc2c3c(cc4c2CCC4)CCC3)[nH]1 [Example 269, N-(1,2,3,5,6,7-hexahydro-s-indacen-4-yl)-5-(((1S,5S)-6-methyl-2,6-diazabicyclo[3.2.0]heptan-2-yl)sulfonyl)-4H-1,2,4-triazol-3-amine]"
10,≤ 5 µM,"CN(C)C1CCN(S(=O)(=O)c2nnc(Nc3c(-c4cnn(C)c4)ccc4c3CCC4)[nH]2)CC1 [Example 207, N,N-dimethyl-1-((5-((5-(1-methyl-1H-pyrazol-4-yl)-2,3-dihydro-1H-inden-4-yl)amino)-4H-1,2,4-triazol-3-yl)sulfonyl)piperidin-4-amine]"
11,≤ 5 µM,"CN(C)C1CCC(Oc2cc(-c3ccc4c(c3Nc3nnc(S(C)(=O)=O)[nH]3)CCC4)ccn2)CC1 (stereo not drawn) [Example 356, N-(5-(2-((4-(dimethylamino)cyclohexyl)oxy)pyridin-4-yl)-2,3-dihydro-1H-inden-4-yl)-5-(methylsulfonyl)-4H-1,2,4-triazol-3-amine]"
12,≤ 10 µM,"CN(C)C1CCN(S(=O)(=O)c2nnc(Nc3c(-c4ccnn4C)ccc4c3CCC4)[nH]2)CC1 [Example 205, N,N-dimethyl-1-((5-((5-(1-methyl-1H-pyrazol-5-yl)-2,3-dihydro-1H-inden-4-yl)amino)-4H-1,2,4-triazol-3-yl)sulfonyl)piperidin-4-amine]"
13,≤ 5 µM,"(E)-1-(8-((5-((4-(dimethylamino)piperidin-1-yl)sulfonyl)-4H-1,2,4-triazol-3-yl)amino)-1,2,3,5,6,7-hexahydro-s-indacen-4-yl)ethan-1-one oxime and (Z)-1-(8-((5-((4-(dimethylamino)piperidin-1-yl)sulfonyl)-4H-1,2,4-triazol-3-yl)amino)-1,2,3,5,6,7-hexahydro-s-indacen-4-yl)ethan-1-one oxime [Example 309]"
14,≤ 10 µM,"CS(=O)(=O)c1nnc(Nc2c(-c3ccnc(OCCO)c3)ccc3c2CCC3)[nH]1 [Example 238, 2-((4-(4-((5-(methylsulfonyl)-4H-1,2,4-triazol-3-yl)amino)-2,3-dihydro-1H-inden-5-yl)pyridin-2-yl)oxy)ethan-1-ol]"
15,≤ 5 µM,"NC(=O)c1ccccc1S(=O)(=O)c1n[nH]c(Nc2c3c(cc4c2CCC4)CCC3)n1 [Example 311, 2-((5-((1,2,3,5,6,7-hexahydro-s-indacen-4-yl)amino)-1H-1,2,4-triazol-3-yl)sulfonyl)benzamide]"

# Further lines, the compound ahead of its results:
row,Compound,IC50
1,"O=S(=O)(c1ccccc1)c1nnc(Nc2c(-c3ccncc3)ccc3c2CCC3)[nH]1 [Example 189, 5-(phenylsulfonyl)-N-(5-(pyridin-4-yl)-2,3-dihydro-1H-inden-4-yl)-4H-1,2,4-triazol-3-amine]",≤ 10 µM
2,"O=S(=O)(c1nnc(Nc2c3c(cc4c2CCC4)CCC3)[nH]1)C1CCCC(N2CCCC2)C1 (stereo not drawn) [Example 194, N-(1,2,3,5,6,7-hexahydro-s-indacen-4-yl)-3-((3-(pyrrolidin-1-yl)cyclohexyl)sulfonyl)-1H-1,2,4-triazol-5-amine]",≤ 10 µM
3,"Cn1cc(NS(=O)(=O)c2nnc(Nc3c4c(cc5c3CCC5)CCC4)[nH]2)cn1 [Example 99, 5-((1,2,3,5,6,7-hexahydro-s-indacen-4-yl)amino)-N-(1-methyl-1H-pyrazol-4-yl)-4H-1,2,4-triazole-3-sulfonamide]",≤ 10 µM
4,"CNC(=O)CS(=O)(=O)c1nnc(Nc2c3c(cc4c2CCC4)CCC3)[nH]1 [Example 68, 2-((5-((1,2,3,5,6,7-hexahydro-s-indacen-4-yl)amino)-4H-1,2,4-triazol-3-yl)sulfonyl)-N-methylacetamide]",≤ 5 µM
5,"CN1CC(CNS(=O)(=O)c2nnc(Nc3c4c(cc5c3CCC5)CCC4)[nH]2)C1 [Example 88, 5-((1,2,3,5,6,7-hexahydro-s-indacen-4-yl)amino)-N-((1-methazetidin-3-yl)methyl)-4H-1,2,4-triazole-3-sulfonamide]",≤ 5 µM
6,"O=S(=O)(c1cnn(C2CC2)c1)c1nnc(Nc2c3c(cc4c2CCC4)CCC3)[nH]1 [Example 193, 3-((1-cyclopropyl-H-pyrazol-4-yl)sulfonyl)-N-(1,2,3,5,6,7-hexahydro-s-indacen-4-yl)-1H-1,2,4-triazol-5-amine]",≤ 5 µM
7,"O=S(=O)(c1nnc(Nc2c3c(cc4c2CCC4)CCC3)[nH]1)C1CNC1 [Example 21, 5-(azetidin-3-ylsulfonyl)-N-(1,2,3,5,6,7-hexahydro-s-indacen-4-yl)-4H-1,2,4-triazol-3-amine]",≤ 10 µM
8,"CN1CCC(CN(C)CCCS(=O)(=O)c2nnc(Nc3c4c(cc5c3CCC5)CCC4)[nH]2)CC1 [Example 53, N-(1,2,3,5,6,7-hexahydro-s-indacen-4-yl)-5-((3-(methyl((1-methylpiperidin-4-yl)methyl)amino)propyl)sulfonyl)-4H-1,2,4-triazol-3-amine]",≤ 5 µM
9,"CNC(=O)C1CCN(S(=O)(=O)c2nnc(Nc3c4c(cc5c3CCC5)CCC4)[nH]2)C1 (stereo not drawn) [Example 140, 1-((5-((1,2,3,5,6,7-hexahydro-s-indacen-4-yl)amino)-4H-1,2,4-triazol-3-yl)sulfonyl)-N-methylpyrrolidine-3-carboxamide]",≤ 5 µM
10,"CC(=O)NCCN(C)S(=O)(=O)c1nnc(Nc2c3c(cc4c2CCC4)CCC3)[nH]1 [Example 107, N-(2-(5-((1,2,3,5,6,7-hexahydro-s-indacen-4-yl)amino)-N-methyl-4H-1,2,4-triazole-3-sulfonamido)ethyl)acetamide]",≤ 10 µM
11,"O=S(=O)(CC1CCCO1)c1nnc(Nc2c3c(cc4c2CCC4)CCC3)[nH]1 (stereo not drawn) [Example 67, N-(1,2,3,5,6,7-hexahydro-s-indacen-4-yl)-3-(((tetrahydrofuran-2-yl)methyl)sulfonyl)-1H-1,2,4-triazol-5-amine]",≤ 10 µM
12,"COc1cc(-c2ccc3c(c2Cc2nnc(S(=O)(=O)c4ccn(C(C)C)n4)[nH]2)CCC3)ccn1 [Example 32, 4-(4-((5-((1-isopropyl-H-pyrazol-3-yl)sulfonyl)-4H-1,2,4-triazol-3-yl)methyl)-2,3-dihydro-1H-inden-5-yl)-2-methoxypyridine]",≤ 5 µM
